The source of these data is patent US20140242012A1, “METHODS FOR TREATING UV-DAMAGED SKIN AND SCC TUMORS AND FOR REMOVING TATTOOS WITH TOPICAL INGENOL MEBUTATE” (LEO Laboratories Limited, priority 2011, published 2014).

The subject of the assay is anti-T7 antibodies. Nature of the assay: T7 ELISA of serum from cured mice. Type of assay: in vivo, SKH1/hr mice. As to the method:
Blood (˜50-100 μl) 1 s taken by tail bleeding the mice and is collected into 0.8 ml MiniCollect® Z Serum Separator tubes that are coated with spray-dried clot activator (Greiner bio-one Cat. Num. 450472) and are spun at 3000 rpm in a microfuge at room temperature for 10 min. The serum is collected and stored at 4° C. for analysis of anti-T7 antibodies by ELISA.
Preparation of T7 ELISA plates: T7 cells are grown to 90% confluence. The medium is aspirated and the cells are washed once with ice-cold PBS. T7 cells are harvested by scraping in PBS supplemented with protease inhibitor cocktail (PIC) and disrupted by sonication at 4° C. for 1-2 min. The T7 lys ate solution is supplemented with bicarbonate buffer (pH 9.6) containing PIC to a final volume of 40 ml and 70 μl/well is added to each well in a 96 well plate (Nunc, Invitro Technologies Cat. Num. 442404). The plates are dried overnight at 37° C.
The following day, the plates are blocked with 10% (w/v) skim milk in PBS for 1 h at room temperature. Meanwhile mouse serum is prepared by diluting 1:7 to 1:413343 in 3-fold dilutions in PBS/0.01% Tween20 (v/v)/1% (w/v) skim milk for the IgG2a plate and 1:10 10 […] in 3-fold dilutions for the IgG1 plate. […] Spectrophotometric readings are taken on an ELISA plate reader at 405 nm and graphs are generated using Graphpad Prism Version 5.01 software. […]
(In an ELISA, binding on a coated surface is turned into a signal by an enzyme label.)

For the compound `C/C=C(/C)C(=O)O[C@H]1C(C)=C[C@]23C(=O)[C@@H](C=C(CO)[C@@H](O)[C@]12O)[C@H]1[C@@H](C[C@H]3C)C1(C)C` [ingenol mebutate], the “IgG1 and IgG2a anti-T7 antibodies vs naïve mice” value (cured female mice bled 107 days post treatment, 0.25% topical) is reported as “significantly more”. For the same compound, the anti-tumour antibodies entry (separate group, day 156 post treatment) was “barely detectable”.
